Measurements as given in patent publication US6124323A, “4-substituted piperidine analogs and their use as subtype selective NMDA receptor antagonists” (Warner-Lambert Company, priority 1998, dated 2000).
Structures can show the parent of a compound that is named as a salt.

Columns and labels:
[1] = biological target: T1, NMDA receptor subunits 1A/2A (Rattus norvegicus, UniProt P35439+Q00959); assay: Electrophysiological assay at NMDA receptor subunits expressed in Xenopus oocytes, 1A/2A; format: cell-based; conditions: glutamate 100 μm and glycine 1-100 μm
T1 construct: expressed in transfected cells; host or cells: Xenopus laevis oocytes (cRNA injection; clones from Dr. P. H. Seeburg)
T1 sequence (Q00959 20-1464 limits assumed, other chains not shown): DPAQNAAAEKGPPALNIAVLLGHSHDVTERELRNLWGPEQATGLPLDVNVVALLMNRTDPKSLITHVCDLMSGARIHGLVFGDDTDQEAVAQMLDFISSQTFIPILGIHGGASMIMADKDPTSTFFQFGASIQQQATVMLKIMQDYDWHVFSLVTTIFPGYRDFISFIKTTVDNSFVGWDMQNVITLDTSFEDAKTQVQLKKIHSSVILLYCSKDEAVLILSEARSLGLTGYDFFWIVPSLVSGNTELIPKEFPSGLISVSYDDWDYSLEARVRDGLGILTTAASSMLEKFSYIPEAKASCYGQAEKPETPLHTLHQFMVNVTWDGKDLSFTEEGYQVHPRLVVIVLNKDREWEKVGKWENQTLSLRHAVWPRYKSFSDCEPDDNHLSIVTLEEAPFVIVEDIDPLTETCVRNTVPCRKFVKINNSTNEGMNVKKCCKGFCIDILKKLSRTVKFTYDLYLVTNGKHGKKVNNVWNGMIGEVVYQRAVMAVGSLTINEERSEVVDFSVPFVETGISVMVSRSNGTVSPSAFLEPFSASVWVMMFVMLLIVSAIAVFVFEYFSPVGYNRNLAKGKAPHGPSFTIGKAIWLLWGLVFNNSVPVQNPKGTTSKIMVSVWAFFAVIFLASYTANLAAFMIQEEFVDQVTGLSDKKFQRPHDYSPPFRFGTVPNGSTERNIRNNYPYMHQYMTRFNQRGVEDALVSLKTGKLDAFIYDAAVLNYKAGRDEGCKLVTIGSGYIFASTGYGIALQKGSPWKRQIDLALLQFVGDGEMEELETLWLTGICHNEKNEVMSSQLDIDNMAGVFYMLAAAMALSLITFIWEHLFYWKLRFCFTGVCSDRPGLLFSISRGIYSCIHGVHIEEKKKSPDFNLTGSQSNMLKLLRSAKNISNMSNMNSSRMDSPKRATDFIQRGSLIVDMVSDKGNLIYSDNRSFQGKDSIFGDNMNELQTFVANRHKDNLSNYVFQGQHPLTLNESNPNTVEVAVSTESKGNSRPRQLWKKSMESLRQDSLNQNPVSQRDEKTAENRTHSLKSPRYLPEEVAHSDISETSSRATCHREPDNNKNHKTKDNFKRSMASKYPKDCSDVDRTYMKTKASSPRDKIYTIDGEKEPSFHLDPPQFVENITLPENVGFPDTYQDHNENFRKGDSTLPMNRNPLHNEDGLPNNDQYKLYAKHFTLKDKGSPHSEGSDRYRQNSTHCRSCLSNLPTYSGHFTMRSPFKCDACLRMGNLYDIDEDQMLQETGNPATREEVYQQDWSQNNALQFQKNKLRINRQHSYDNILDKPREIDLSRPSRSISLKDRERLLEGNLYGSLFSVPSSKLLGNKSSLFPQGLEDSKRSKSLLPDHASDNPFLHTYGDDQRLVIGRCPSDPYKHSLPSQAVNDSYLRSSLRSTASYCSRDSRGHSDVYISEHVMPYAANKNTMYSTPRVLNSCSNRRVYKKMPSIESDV
Method in brief: (§1)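 Two-electrode voltage clamp of Xenopus oocytes injected with rat NR1A plus NR2A, 2B or 2C cRNA (1:1), recorded 3–21 days post-injection in Ringer's, pH 7.4. Currents evoked by glutamate (100 μm) with glycine (1–100 μm); antagonist applied by bath perfusion at rising concentrations, IC50 from logistic fit or linear regression for incomplete curves.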

[2] = biological target: T2, NMDA receptor subunits 1A/2B (Rattus norvegicus, UniProt P35439+Q00960); assay: Electrophysiological assay at NMDA receptor subunits expressed in Xenopus oocytes, 1A/2B; format: cell-based; conditions: Xenopus oocytes; glutamate 100 μm and glycine 1-100 μm; read-out: Subunits IC50, 1A/2B
T2 construct: expressed in transfected cells; host or cells: Xenopus laevis oocytes (cRNA injection; clones from Dr. P. H. Seeburg)
T2 sequence (Q00960 27-1482, other chains not shown): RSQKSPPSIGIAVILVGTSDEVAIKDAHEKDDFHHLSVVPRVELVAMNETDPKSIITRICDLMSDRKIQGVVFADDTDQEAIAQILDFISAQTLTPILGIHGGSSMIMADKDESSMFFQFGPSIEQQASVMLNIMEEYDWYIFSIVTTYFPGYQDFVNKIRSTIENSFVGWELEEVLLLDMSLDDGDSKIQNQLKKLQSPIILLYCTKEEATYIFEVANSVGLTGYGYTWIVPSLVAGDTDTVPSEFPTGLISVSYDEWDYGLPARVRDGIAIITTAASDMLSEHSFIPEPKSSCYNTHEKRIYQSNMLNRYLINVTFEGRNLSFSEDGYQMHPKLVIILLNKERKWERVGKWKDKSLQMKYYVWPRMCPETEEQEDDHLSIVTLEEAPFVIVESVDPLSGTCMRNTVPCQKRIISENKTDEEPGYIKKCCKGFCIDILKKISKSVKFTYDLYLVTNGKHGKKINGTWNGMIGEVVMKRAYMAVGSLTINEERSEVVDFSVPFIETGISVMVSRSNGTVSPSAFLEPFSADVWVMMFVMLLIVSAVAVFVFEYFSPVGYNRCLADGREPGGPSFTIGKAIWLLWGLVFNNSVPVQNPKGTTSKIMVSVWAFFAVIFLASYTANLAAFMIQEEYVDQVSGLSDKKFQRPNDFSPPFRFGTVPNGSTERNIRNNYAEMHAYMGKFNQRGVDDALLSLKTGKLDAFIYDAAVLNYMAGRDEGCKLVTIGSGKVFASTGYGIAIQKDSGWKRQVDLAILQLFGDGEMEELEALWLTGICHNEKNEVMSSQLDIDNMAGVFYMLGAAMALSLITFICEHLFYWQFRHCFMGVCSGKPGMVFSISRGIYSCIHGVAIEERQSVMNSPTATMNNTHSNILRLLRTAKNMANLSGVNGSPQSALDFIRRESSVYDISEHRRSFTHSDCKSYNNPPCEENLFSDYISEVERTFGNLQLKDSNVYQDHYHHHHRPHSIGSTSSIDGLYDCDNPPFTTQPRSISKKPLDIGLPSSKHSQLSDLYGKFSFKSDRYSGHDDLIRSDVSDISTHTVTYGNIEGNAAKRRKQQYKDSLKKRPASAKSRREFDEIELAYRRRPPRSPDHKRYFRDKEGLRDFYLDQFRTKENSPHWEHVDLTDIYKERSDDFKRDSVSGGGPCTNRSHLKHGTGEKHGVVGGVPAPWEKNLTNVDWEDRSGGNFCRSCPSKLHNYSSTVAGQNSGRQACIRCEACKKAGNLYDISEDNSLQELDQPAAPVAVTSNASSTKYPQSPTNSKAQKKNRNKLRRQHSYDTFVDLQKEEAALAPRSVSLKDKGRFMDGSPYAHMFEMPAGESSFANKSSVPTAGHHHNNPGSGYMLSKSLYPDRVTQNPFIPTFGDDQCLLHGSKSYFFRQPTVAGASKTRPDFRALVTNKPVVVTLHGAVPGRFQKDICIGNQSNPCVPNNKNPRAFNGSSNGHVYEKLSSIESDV
Method in brief: as §1

[3] = biological target: T3, NMDA receptor subunits 1A/2C (Rattus norvegicus, UniProt P35439+Q00961); assay: Electrophysiological assay at NMDA receptor subunits expressed in Xenopus oocytes, 1A/2C; format: cell-based; conditions: Xenopus oocytes; glutamate 100 μm and glycine 1-100 μm; read-out: Subunits IC50, 1A/2C
T3 construct: expressed in transfected cells; host or cells: Xenopus laevis oocytes (cRNA injection; clones from Dr. P. H. Seeburg)
T3 sequence (Q00961 20-1237, other chains not shown): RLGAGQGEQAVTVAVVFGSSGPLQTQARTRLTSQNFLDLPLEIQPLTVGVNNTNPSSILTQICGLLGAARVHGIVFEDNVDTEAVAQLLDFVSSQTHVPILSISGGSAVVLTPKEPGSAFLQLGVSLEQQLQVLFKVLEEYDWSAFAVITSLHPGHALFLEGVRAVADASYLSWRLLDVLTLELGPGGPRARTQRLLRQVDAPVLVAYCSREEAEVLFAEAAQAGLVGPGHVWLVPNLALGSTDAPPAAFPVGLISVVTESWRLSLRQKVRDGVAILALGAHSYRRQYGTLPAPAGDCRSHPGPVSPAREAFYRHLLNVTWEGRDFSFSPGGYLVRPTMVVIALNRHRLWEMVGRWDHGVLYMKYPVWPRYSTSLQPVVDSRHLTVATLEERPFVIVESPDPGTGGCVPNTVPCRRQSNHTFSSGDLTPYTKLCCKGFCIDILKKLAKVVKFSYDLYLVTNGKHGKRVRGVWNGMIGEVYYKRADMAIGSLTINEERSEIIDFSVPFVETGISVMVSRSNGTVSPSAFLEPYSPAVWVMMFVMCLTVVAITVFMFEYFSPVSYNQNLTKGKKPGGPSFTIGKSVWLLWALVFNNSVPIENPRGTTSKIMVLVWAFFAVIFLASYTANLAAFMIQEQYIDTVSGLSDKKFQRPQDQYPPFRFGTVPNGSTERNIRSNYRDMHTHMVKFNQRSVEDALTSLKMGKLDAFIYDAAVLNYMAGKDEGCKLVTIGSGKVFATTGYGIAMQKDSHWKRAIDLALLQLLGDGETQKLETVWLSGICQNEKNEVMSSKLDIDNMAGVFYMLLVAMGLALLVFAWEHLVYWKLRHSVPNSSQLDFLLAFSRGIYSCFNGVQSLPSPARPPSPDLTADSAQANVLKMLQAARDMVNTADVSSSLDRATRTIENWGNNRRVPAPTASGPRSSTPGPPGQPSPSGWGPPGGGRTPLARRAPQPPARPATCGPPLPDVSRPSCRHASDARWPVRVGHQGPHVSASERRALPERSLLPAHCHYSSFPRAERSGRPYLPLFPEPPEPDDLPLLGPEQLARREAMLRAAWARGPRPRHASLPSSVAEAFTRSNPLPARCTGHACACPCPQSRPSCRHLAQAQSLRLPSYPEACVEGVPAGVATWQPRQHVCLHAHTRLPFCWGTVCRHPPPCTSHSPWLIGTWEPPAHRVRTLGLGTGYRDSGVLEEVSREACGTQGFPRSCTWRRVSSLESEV
Method in brief: as §1

[4] = test system: Maximal Electroshock-induced Seizures; assay: Maximal electroshock-induced seizures (MES); format: in vivo; conditions: Mus musculus; mice; 50 mA, 60 pulses/sec, 1 sec
From the text: Seizures were induced by application of current (50 mA, 60 pulses/sec, 0.8 sec pulse width, 1 sec duration, d.c.) through saline-coated corneal electrodes using a Ugo Basile ECT device (Model 7801). […] A tonic seizure was defined as a hindlimb extension in excess of 90 degrees from the plane of the body.

IC50 [1] [µM]	IC50 [2] [µM]	IC50 [3] [µM]	SMILES	ED50 [4] [mg/kg]
70	1	100	Clc1ccc(CC2CCN(CCOc3ccccc3)CC2)cc1 [Ex. 24, 4-(4-Chlorobenzyl)-1-(2-phenoxyethyl)piperidine hydrochloride]	2
72	0.04	170	S=c1[nH]c2ccc(OCCN3CCC(Cc4ccccc4)CC3)cc2[nH]1 [Ex. 171, 4-Benzyl-1-(2-(2-thioxobenzimidazol-5-oxy)ethyl)piperidine]	5
75	45	> 100	Fc1ccc(OCCN2CCC(Nc3ccc(Cl)cc3)CC2)cc1 [Ex. 38, 4-(4-Chloroanilino)-1-(2-(4-fluorophenoxy)ethyl)piperidine dihydrochloride]	10
60	0.4	> 100	OCCc1cccc(OCCN2CCC(Cc3ccccc3)CC2)c1 [Ex. 18, 4-Benzyl-1-(2-(3-(2-hydroxyethyl)phenoxy)ethyl)piperidine]	6
55	0.02	> 300	CCc1ccc(CC2CCN(CCOc3ccc(O)cc3)CC2)cc1 [Ex. 120, hydrochloride]	2
110	0.05	> 300	COc1ccc(CC2CCN(CCOc3ccc(O)cc3)CC2)cc1 [Ex. 121, 1-[2-(4-Hydroxyphenoxy)ethyl]-4-(4-methoxybenzyl)piperidine hydrochloride]	2.5
30	0.01	160	Cl.Oc1ccc(OCCN2CCC(Cc3c(F)cccc3F)CC2)cc1 [Ex. 146, 1-[2-(4-Hydroxyphenoxy)ethyl]-4-(2,6-difluorobenzyl)piperidine hydrochloride]	0.8
89	1.1	> 100	c1ccc(CC2CCN(CCCOc3ccccc3)CC2)cc1 [Ex. 2, 4-Benzyl-1-(3-phenoxypropyl)piperidine]	3
65	0.05	301	Cl.Oc1ccc(SCCN2CCC(Cc3ccc(F)cc3)CC2)cc1 [Ex. 165, 4-(4-Fluorobenzyl)-1-(2-(4-hydroxythiophenoxy)ethyl)piperidine hydrochloride]	0.5
38	0.4	> 100	Br.Br.Nc1ccc(OCCN2CCC(Cc3ccc(Cl)cc3)CC2)cc1 [Ex. 28, 1-(2-(4-Aminophenoxy)ethyl)-4-(4-chlorobenzyl)piperidine dihydrobromide]	5
60	3	> 100	Nc1ccccc1OCCN1CCC(Cc2ccc(Cl)cc2)CC1 [Ex. 74, 4-(4-Chlorobenzyl)-1-[2-(2-aminophenoxy)ethyl]piperidine]	3.5
90	1.3	> 100	Br.Br.Nc1ccc(OCCN2CCC(Cc3ccccc3)CC2)cc1 [Ex. 13, 1-(2-(4-Aminophenoxy)ethyl)-4-benzylpiperidine dihydrobromide]	6
75	0.03	220	Cc1ccc(CC2CCN(CCOc3ccc(O)cc3)CC2)cc1 [Ex. 115, 1-[2-(4-Hydroxyphenoxy)ethyl]-4-(4-methylbenzyl)piperidine hydrochloride]	0.7
43	1	210	O=c1[nH]c2ccc(OCCN3CCC(Cc4ccccc4)CC3)cc2o1 [Ex. 182, 4-Benzyl-1-(2-(2-oxobenzoxazol-6-oxy)ethyl)piperidine]	> 20
> 300	0.03	> 300	Cl.Oc1ccc(OCCN2CCC(Cc3ccccc3)CC2)cc1 [Ex. 99, 1-[2-(4-hydroxyphenoxy)ethyl]-4-benzylpiperidine hydrochloride]	2
60	0.02	290	Oc1ccc(OCCN2CCC(Cc3ccc(F)cc3)CC2)cc1 [Ex. 102, 1-[2-(4-Hydroxyphenoxy)ethyl]-4-(4-fluorobenzyl)piperidine hydrochloride]	3
190	0.4	> 300	CN(CCN1CCC(Cc2ccccc2)CC1)c1ccccc1 [Ex. 143, 4-Benzyl-1-((2-(N-methyl-N-phenyl)amino)ethyl)piperidine dihydrochloride]	0.5
52	0.02	100	Cc1ccc(CC2CCN(CCOc3ccc(O)c(F)c3)CC2)cc1 [Ex. 151, 1-[2-(4-Hydroxy-3-fluorophenoxy)ethyl]-4-(4-methylbenzyl)piperidine hydrochloride]	2.5
7	0.1	130	Oc1ccc2cc(OCCN3CCC(Cc4ccccc4)CC3)ccc2c1 [Ex. 189, 4-Benzyl-1-(2-(2-hydroxynaphth-6-oxy)ethyl)piperidine]	7
> 300	0.06	> 300	O=C1Cc2cc(OCCN3CCC(Cc4ccccc4)CC3)ccc2N1 [Ex. 194, 4-Benzyl-1-(2-(2-oxo-1,3-dihydroindol-5-oxy)ethyl)piperidine]	2.5
55	0.05	240	Oc1ccc(OCCN2CCC(Cc3ccc(Cl)cc3)CC2)cc1 [Ex. 101, hydrochloride]	3
50	0.05	> 300	CC(C)c1ccc(CC2CCN(CCOc3ccc(O)cc3)CC2)cc1 [Ex. 131, 1-[2-(4-Hydroxyphenoxy)ethyl]-4-(4-isopropylbenzyl)piperidine hydrochloride]	1.5
50	0.04	140	Cc1ccc(CC2CCN(CCOc3ccc(O)c(F)c3)CC2)c(F)c1 [Ex. 149, 1-[2-(4-Hydroxy-3-fluorophenoxy)ethyl]-4-(2-fluoro-4-methylbenzyl)piperidine hydrochloride]	2
50	0.11	> 100	O=c1[nH]c2cccc(OCCN3CCC(Cc4ccc(Cl)cc4)CC3)c2[nH]1 [Ex. 77, 4-(4-Chlorobenzyl)-1-[2-(2-oxobenzimidazol-4-oxy)ethyl]piperidine]	6
50	0.2	> 300	Oc1ccc(CC2CCN(CCOc3ccc(F)cc3)CC2)cc1 [Ex. 104]	3
250	0.02	230	Cc1ccc(CC2(O)CCN(CCOc3ccc(O)cc3)CC2)cc1.Cl [Ex. 154, 1-[2-(4-Hydroxyphenoxy)ethyl]-4-hydroxy-4-(4-methylbenzyl)piperidine hydrochloride]	1.5
110	0.02	301	Oc1ccc(C2CCN(CCCCc3ccccc3)CC2)cc1 [Ex. 167, 4-(4-Hydroxyphenyl)-1-(4-phenylbutyl)piperidine]	0.3
25	0.03	50	S=c1[nH]c2ccc(OCCN3CCC(Cc4ccc(Cl)cc4)CC3)cc2[nH]1 [Ex. 176, 4-(4-Chlorobenzyl)-1-(2-(2-thioxobenzimidazol-5-oxy)ethyl)piperidine]	7.5
35	0.1	210	O=c1[nH]c2ccc(OCCN3CC=C(Cc4ccccc4)CC3)cc2[nH]1 [Ex. 177, 4-Benzyl-1-(2-(2-oxobenzimidazol-5-oxy)ethyl)-1,2,5,6-tetrahydropyridine]	5
75	3.3	> 300	Cl.Cl.Oc1ccc(OCCN2CCC(Cc3ccccn3)CC2)cc1 [Ex. 125, 1-(2-(4-Hydroxyphenoxy)ethyl)-4-(2-picolyl)piperidine dihydrochloride]	15
